Measurements: patent US10613078B2, “Assays for measuring cardiotoxicity” (NCARDIA B.V., priority 2015, dated 2020)

Tested on: human stem-cell derived cardiomyocytes
Test: Promega ATP assay (CellTiter-Glo luminescent cell viability) on cardiomyocytes
Assay type: cell-based
Source text: Cells were dissociated at day 21 using 10× TrypLE select and replated at 20.000 cells/well in white 96-well plates (Corning 655098) and treated according to the protocol shown in FIG. 1. Alternatively, Pluricyte Cardiomyocytes were obtained from Pluriomics (Leiden, The Netherlands). The cryopreserved cells were recovered in maintained in Pluricyte Medium (Pluriomics, Leiden, The Netherlands) and thereafter cultivated on medium without glucose and/or galactose but comprising fatty acids and carnitine as described below. […]
After two days, an ATP viability assay was performed. ATP values were measured using the Promega Cell titer Glo luminescent cell viability kit according to manufacturers instructions. […] Available ATP is measured via an ATP dependent conversion of Luciferin by a recombinant Luciferase, which produces oxyluciferin and light. The amount of luminescence generated is therefore directly proportional to the amount of ATP in the cells.

`COc1cccc2c1C(=O)c1c(O)c3c(c(O)c1C2=O)C[C@@](O)(C(=O)CO)C[C@@H]3O[C@H]1C[C@H](N)[C@H](O)[C@H](C)O1` [doxorubicin] was tested, and the “effect on ATP levels” value (cardiomyocytes cultivated in the presence of glucose, various concentrations of doxorubicin, n=6 (FIG. 2)) was “shows a clear effect on ATP levels” and the “mitochondrial toxicity (ATP levels), CM versus CM− medium” value (cells grown in CM (with glucose) compared with CM− (without glucose and galactose, with fatty acids and carnitine) (FIG. 3, lower panel)) was “more pronounced in cells cultured in CM−”.
